Article PMC8587714, “Preliminary Assessment of the Anti-inflammatory Activity of New Structural Honokiol Analogs with a 4′-O-(2-Fluoroethyl) Moiety and the Potential of Their ^18F-Labeled Derivatives for Neuroinflammation Imaging” (Molecules, 2021)
Read-outs that look alike come from different tables or passages of the source. Values belong to the compound of their own block, whether it stands above or below them.

Legend:
IL-6 and TNF-α = experiment: Cytokine assay (ELISA) in LPS-induced neuroinflammation in mice; assay type: in vivo, C57BL/6 mice; settings: 10 mg/kg for 3 days, 72 h after LPS
[1] = system: lipid peroxidation products (TBARS); experiment: TBARS assay in brain of LPS-injected mice; assay type: in vivo, C57BL/6 mice; settings: 10 mg/kg for 3 days, 72 h after LPS
Excerpt: All experiments adhered to regulations of DIRECTIVE 2010/63/EU on the protection of laboratory animals. The procedures with animals were reviewed and approved by the Ethics Committee of Smorodintsev Research Institute of Influenza. […]. The animals were housed in a climate-controlled room with a 12/12-h light cycle. The subjects had ad libitum access to food and water during housing. Neuroinflammation was modeled in animals by intraperitoneal (i.p.) single injection of LPS from Escherichia coli saline O111:B4 (Sigma-Aldrich) at a dose of 2 mg/kg.
In total, 7 groups of 5 individuals in each were studied, including a group of intact animals. […]. The blood collected after decapitation was left in tubes with a serum separator for 30 min, then centrifuged at 611 g (3000 rpm) and 4 °C for 10 min. Blood and brain samples were frozen and stored at −20 °C.
The brain was weighed and 2 mL of ice-cold endotoxin-free PBS containing 0.1% non-ionic detergent Triton X-100 was added to the tissue samples left under ice for 10 min until homogenized with a tissue disruptor. […]
The supernatant diluted with buffer 1:10 was used for analysis. […] Each sample (150 μL) was loaded in duplicate into a 96-well plate, and the absorbance was measured at 535 nm on an EPOCH2TC.

[2] = Plasma protein binding by ultrafiltration, rat plasma; assay type: in vitro ADME
Experimental: (§1) The ultrafiltration method was used to estimate the protein-free fraction of [^18F]F-IV and [^11C]MPbP in human and rat plasma. Equal volumes (500 μL) of plasma or PBS (control) were mixed with the formulated solution of radioligand (5 MBq,50μL) and incubated at 37 °C for 15 min. After incubation, aliquots of mixture (200 µL) were transferred to the tubes for ultrafiltration (Amicon 3K; Merck) and centrifuged at 7000 g for 15 min. Equal aliquots (20 μL) of ultrafiltrate (Cfree) and plasma (Ctotal) were measured with γ-counter. The obtained data were corrected for the radioligand binding to the filter membrane. Filtrations were performed in duplicate. The unbound (free) fraction of the radioligand was calculated as fu(%) = Cfree/Ctotal × 100%.

[3] = Plasma protein binding by ultrafiltration, human plasma; assay type: in vitro ADME
Experimental: as §1

[4] = set-up: method as in doi:10.1002/slct.201904788; settings: all examined organs and brain regions; cited from earlier work
ovine COX-2 = system: ovine COX-2; set-up: method as in PMID 25074039; settings: ovine COX-1/COX-2 assay kit; cited from earlier work
ovine COX-1 = system: ovine COX-1; set-up: method as in PMID 25074039; settings: ovine COX-1/COX-2 assay kit; cited from earlier work
human recombinant COX-2 [5] = target: T1, human recombinant COX-2 (Homo sapiens, UniProt P35354); experiment: COX (human) Inhibitor Screening Assay kit (EIA), COX-2
T1 sequence (P35354 18-604): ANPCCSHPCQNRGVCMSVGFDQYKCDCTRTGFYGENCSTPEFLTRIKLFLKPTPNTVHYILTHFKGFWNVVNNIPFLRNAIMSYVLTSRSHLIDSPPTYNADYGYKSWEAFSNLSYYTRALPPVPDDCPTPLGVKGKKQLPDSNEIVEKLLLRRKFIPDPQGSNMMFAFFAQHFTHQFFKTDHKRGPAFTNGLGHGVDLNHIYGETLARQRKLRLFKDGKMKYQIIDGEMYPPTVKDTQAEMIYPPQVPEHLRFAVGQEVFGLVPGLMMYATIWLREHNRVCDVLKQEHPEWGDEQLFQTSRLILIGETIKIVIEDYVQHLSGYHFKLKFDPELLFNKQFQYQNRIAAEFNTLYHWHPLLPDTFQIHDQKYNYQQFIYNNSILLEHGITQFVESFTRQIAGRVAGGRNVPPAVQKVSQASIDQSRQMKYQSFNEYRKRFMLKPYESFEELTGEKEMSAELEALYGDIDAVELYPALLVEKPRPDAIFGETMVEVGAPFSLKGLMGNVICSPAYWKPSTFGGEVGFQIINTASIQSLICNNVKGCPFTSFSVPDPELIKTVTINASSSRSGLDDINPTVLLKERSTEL

human recombinant COX-2 [6] = target: T1, human recombinant COX-2; set-up: purchased Cayman Chemical Company 701230; settings: cited from earlier work
human recombinant COX-1 [7] = target: T2, human recombinant COX-1 (Homo sapiens, UniProt P23219); set-up: purchased Cayman Chemical Company 701230; settings: human COX-1/COX-2 assay kit; cited from earlier work
T2 sequence (P23219 24-599): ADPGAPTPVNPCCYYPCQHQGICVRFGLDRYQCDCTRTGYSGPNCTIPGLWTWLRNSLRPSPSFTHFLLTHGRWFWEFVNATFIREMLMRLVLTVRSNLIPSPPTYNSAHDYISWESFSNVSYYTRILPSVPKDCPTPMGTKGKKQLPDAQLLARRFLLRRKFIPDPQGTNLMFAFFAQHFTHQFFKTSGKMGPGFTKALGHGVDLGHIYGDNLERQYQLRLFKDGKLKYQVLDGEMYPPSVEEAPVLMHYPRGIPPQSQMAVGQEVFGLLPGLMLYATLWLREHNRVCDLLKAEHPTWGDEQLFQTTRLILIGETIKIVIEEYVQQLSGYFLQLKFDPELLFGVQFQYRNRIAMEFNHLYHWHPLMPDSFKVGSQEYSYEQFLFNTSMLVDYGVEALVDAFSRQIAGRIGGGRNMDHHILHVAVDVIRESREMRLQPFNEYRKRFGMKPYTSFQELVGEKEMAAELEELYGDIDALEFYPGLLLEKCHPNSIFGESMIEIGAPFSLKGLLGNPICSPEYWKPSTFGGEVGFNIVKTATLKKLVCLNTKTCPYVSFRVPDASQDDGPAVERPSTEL

human recombinant COX-1 [8] = target: T2, human recombinant COX-1; experiment: COX (human) Inhibitor Screening Assay kit (EIA), COX-1
[9] = Plasma-stability study (radio-HPLC); assay type: in vitro ADME; settings: 37 °C, up to 60 min
Experimental: The stability of [^18F]F-IV was investigated in human plasma at 37 °C in the range from 0 to 60 min according to a modified protocol. Phosphate-buffered saline (PBS, 0.15 M, pH 7.4) was used as a control. [^18F]F-IV formulated solution (10 µL, ~1 MBq) was added to tubes with PBS (300 µL) and human plasma (300 µL). The mixture was vortexed and incubated at 37 °C. An aliquot of 100 µL from the sample was taken at different time points (0, 10, 20, 40, and 60 min) and mixed with 100 µL ice-cooled acetonitrile and centrifuged (3 min, 4500× g). The supernatants were analyzed by radio-HPLC using XBridge C18 analytical column.

[10] = Ex vivo biodistribution in intact, LPS-treated and celecoxib-blocked rats; set-up: species or system Wistar rats
Experimental: Ex vivo biodistribution was intended as a preliminary assessment of the BBB permeability and overall distribution of [^18F]F-IV in LPS-treated and intact Wistar rats. [^18F]F-IV uptake by tissue was expressed as %ID/g (dose administered per gram of tissue). […] The radioligand seems to readily penetrate the BBB, as evidenced by the high initial rate of brain uptake with a peak value of 2.21 ± 0.64 and 2.09 ± 0.65 (%ID/g) in the pons and medulla, respectively, at 10 min post-injection, (Figure 6A). […] The excretion pathway was through the kidneys, and 60 min after injection there was no obvious difference in [^18F]F-IV uptake values between tissues. The lack of significant specific accumulation of radioactivity in the brain, heart, lungs, and kidneys most likely reflects the low baseline level of COX-2 expression in these organs in healthy animals. It should be noted that relatively high initial levels of radioactivity in the blood pool persisted even 120 min after injection of [^18F]F-IV (0.99 ± 0.17 vs. 1.35 ± 0.06%ID/g). This was the main difference in the distribution of [^18F]F-IV and the previously reported [^11C]MPbP in organs and tissues of intact rats.
Ex vivo radioligand biodistribution was performed by direct radiometry of organs and tissue samples of Wistar rats. Each rat was injected with (12 ± 3) MBq (volume ≤ 0.2 mL) of [^18F]F-IV through the tail vein under anesthetic conditions. Control rats were sacrificed at 10 (n = 3), 30 (n = 3), 60 (n = 3), and 120 (n = 3) min after injection. Twenty-four hours prior to ex vivo biodistribution studies, 6 rats received an intraperitoneal (i.p.) injection of LPS (2 mg/kg) from Escherichia coli (O111: B4) or saline (1 mL/kg).
Blood samples and organs of interest, namely, the brain (cerebral cortex, cerebellum, medulla, and pons), thymus, heart, lung, spleen, kidney, liver, bladder, and muscle, were removed and weighed. The radioactivity in each tissue sample was measured by a γ-counter to calculate the percentage of injected dose per gram of tissue (%ID/g). Data were provided as mean ± SEM values.

[11] = logD7.4 determination, shake-flask method; assay type: physicochemical; settings: 1-octanol/phosphate buffer pH 7.4, n = 6; read-out: lipophilicity (logD7.4)
Experimental: The partition coefficient of [^18F]F-IV (log D7.4) was determined by the shake-flask method for measuring the distribution of radioactivity between 1-octanol and phosphate buffer pH 7.4. Into a tube containing 10 µL of [^18F]F-IV (~1 MBq), 1.5 mL of pre-saturated 1-octanol and 1.5 mL of phosphate buffer were added and vortexed for 15 min. Then, the tube was centrifuged at 3000 g for 5 min to ensure complete separation of the phases. Then, aliquots of 500 μL were taken from each phase into separate tubes and the radioactivity was measured in a γ-counter. The measurements were performed in triplicate. The log D7.4 value was calculated as follows: log (counts per min in 1-octanol/ counts per min in PBS) for five independent experiments.

[12] = rat plasma, read-out: PPB level, rats (converted)
[13] = unbound (free) fraction, 37 °C, n = 3, read-out: fu in Rat Plasma
[14] = human plasma, read-out: PPB level, humans (converted)
[15] = unbound (free) fraction, 37 °C, n = 6, read-out: fu in Human Plasma
[16] = %ID organ/%ID blood, 60 min post-injection
[17] = healthy (intact) rats, 10 min post-injection

Compound: Cc1ccc(-c2cc(C(F)(F)F)nn2-c2ccc(S(N)(=O)=O)cc2)cc1 [Celecoxib, celecoxib, reference compound]
serum levels of IL-6 and TNF-α (IL-6 and TNF-α): reduced them to levels seen in intact animals
reduction of TBARS levels in brain [1]: little or no effect

fraction unbound at 15 min, 9.1 MBq/mL [2, 12]: 0.08
fraction unbound at 15 min, 9.1 MBq/mL [2, 13]: 0.0802 ± 0.0037
fraction unbound at 15 min, 9.1 MBq/mL [3, 14]: 0.02
fraction unbound at 15 min, 9.1 MBq/mL [3, 15]: 0.0188 ± 0.0013
Compound: CCCc1ccc(O)c(-c2ccc(O[11CH3])cc2)c1 [[^11C]MPbP, 4′-[^11C]methoxy-5-propyl-1,1′-biphenyl-2-ol, reference compound]
uptake in LPS rats vs healthy rats [4]: up to 400%

Compound: C=CCc1ccc(O)c(-c2ccc(OC)c(CC=C)c2)c1 [MH, 4′-O-methylhonokiol]
IC50 (ovine COX-2): 60 nM
IC50 (ovine COX-1): 2400 nM

Compound: CCCc1ccc(O)c(-c2ccc(OC)cc2)c1 [MPbP]
experimental ddG between MPbP and F-IV for COX-2 (human recombinant COX-2 [5]; from experimental IC50 values): 0.22 kcal/mol
SI (Selectivity Index) (human recombinant COX-2 [6]; SI = COX-1 IC50/COX-2 IC50, human assay kit): 18
IC50 (human recombinant COX-2 [6]; human COX-1/COX-2 assay kit): 140 nM
IC50 (human recombinant COX-1 [7]): 2530 nM

Compound: CCCc1ccc(O)c(-c2ccc(OCCF)c(OC)c2)c1 [F-III, 4′-(2-fluoroethoxy)-3′-methoxy-5-propyl-2-hydroxy-1,1′-biphenyl]
reduction of TBARS levels in brain [1]: 116%

IC50 (human recombinant COX-2 [5]): 90 nM
SI (Selectivity Index) (human recombinant COX-2 [5]; SI = COX-1 IC50/COX-2 IC50, human assay kit, this study): 48
IC50 (human recombinant COX-1 [8]): 4610 nM
Compound: CCCc1ccc(O)c(-c2ccc(OCCF)cc2)c1 [F-IV, 4′-(2-fluoroethoxy)-2-hydroxy-5-propyl-1,1′-biphenyl]
serum levels of IL-6 and TNF-α (IL-6 and TNF-α): comparable or even superior to that of celecoxib

radiochemical stability in human plasma [9]: 92%
increase in radioactivity in LPS animals vs controls, kidney [10, 16]: 16%
increase in radioactivity in LPS animals vs controls, liver [10, 16]: 23%
increase in radioactivity in LPS animals vs controls, lung [10, 16]: 12%
increase in radioactivity in LPS animals vs controls, spleen [10, 16]: 20%
increase in radioactivity in LPS animals vs controls, thymus [10, 16]: 20%
increase in uptake in LPS-treated vs saline-injected rats, medulla [10, 16]: 16%
increase in uptake in LPS-treated vs saline-injected rats, pons [10, 16]: 5%
reduction in radioactivity by celecoxib blocking ([10]; LPS rats, celecoxib 10 mg/kg i.v. 30 min before radioligand, brain (pons and medulla), heart, lung, kidney): 20–32%
brain uptake peak value, medulla [10, 17]: 2.09 ± 0.65 %ID/g
brain uptake peak value, pons [10, 17]: 2.21 ± 0.64 %ID/g
radioactivity in the blood pool ([10]; intact rats, 120 min after injection): 0.99 ± 0.17 %ID/g
radioactivity in the blood pool, initial level ([10]; intact rats, initial (10 min) level): 1.35 ± 0.06 %ID/g
fraction unbound at 15 min, 9.1 MBq/mL [2, 12]: < 0.02
fraction unbound at 15 min, 9.1 MBq/mL [2, 13]: 0.0201 ± 0.0026
logD [11]: 3.3 ± 0.1
fraction unbound at 15 min, 9.1 MBq/mL [3, 14]: < 0.01
fraction unbound at 15 min, 9.1 MBq/mL [3, 15]: 0.0019 ± 0.0005
Compound: CCCc1ccc(O)c(-c2ccc(OCC[18F])cc2)c1 [[^18F]F-IV, 4′-(2-[^18F]fluoroethoxy)-2-hydroxy-5-propyl-1,1′-biphenyl]
